# From patent US12269012B2, “Columns and methods of use for analytical standards and compounds” (priority 2018, dated 2025)
# Like-named read-outs stand apart in the source and are kept apart here.
# Legend:
# [1] = Bound and recovery of PAH standards on PS-DVB on-column standards after 15 days of storage; assay type: physicochemical; conditions: standards 0.1-9 ppm; for Average % Bound: PS-DVB pipette tip columns; for Average % Recovered: after 15 days of storage of on-column standards
# Method: Primary stock solutions of PAHs, namely B(a)A, Ch, B(b)F and B(a)P, were prepared by dissolving 1-2 mg of each compound in 10.0 mL methanol separately. From these stock solutions, secondary working standard stock solutions were mixed together to constitute the working standards containing all the standards mixed together. The secondary standard mixtures were prepared to have final concentrations of 0.1-10 ppm. All primary and secondary working solutions were stored at −20° C.
# PS-DVB 160 μL resin bed volume pipette tip columns (50 mg resin, particle size 70-100 μm particle size, 950 m^2/g surface area) from PhyNexus® (San Jose, CA) were activated with 500 μL of 1:1 methanol/water through five times recycling of the activation solution. The loading was achieved through ten times recycling of the 500 μL sample. Washing was carried out once, with 1:1 methanol/water (ten times recycling of 500 μL wash solution). After washing, the sorbent was dried for 1 minute through flushing ambient air in and out of the tip and then air dried and stored for 15 days.
# PS-DVB sorbent retains PAHs due to strong π-π interactions between sorbent and PAHs. The PS/DVB on-column standards were prepared by loading 0.1, 0.3, 0.5, 0.7, 0.9, 1, 3, 5, 7, and 9 ppm standard mixtures. These corresponded to 50, 150, 250, 350, 450, 500, 1500, 2500, 3500, and 4500 ng by weight of each of the four PAH standards contained in the secondary standard mixture.
# [2] = SPE binding and recovery of flavonoid standards from freshly prepared Oasis HLB cartridges; assay type: physicochemical; conditions: 10, 15, and 20 ppm standard solutions
# Method: In addition, on-column standards were prepared from the fresh standards. Unidirectional flow Oasis® HLB, 30 mg sorbent 1 mL cartridges were used as the solid phase extraction column. The appropriate amounts of standard compounds corresponding to 10-30 ppm were adsorbed to SPE sorbent Oasis® HLB cartridges.
# The SPE columns were activated with 1 mL methanol and equilibrated with 1 mL water. The cartridges loaded with standard compound solutions dried and were stored in vacuum sealed packing.
# The columns were stored for several days. The columns were washed with 1:1 methanol/water. Elution was performed twice with 500 μL 10% formic acid in methanol. HPLC-UV and ESI-MS were used to quantify the target compounds.
# [3] = assay type: physicochemical
# Method: All three solutions were combined to a final volume of 10.0 mL using pure methanol. From this stock solution, working standards at net final concentration of 10-30 ppm (each) were prepared by appropriate dilution of the stock solution into 1:1 methanol/water, v/v. All working solutions were stored at −20° C. as well as stored at room temperature (stability was monitored after 4 hours, 1 day, 3 days, 7 days, 10 days and 28 days' storage at room temperature) to monitor the extent of degradation.
# Degradation Kinetics (0-28 Days) for wet storage at room temperature.
# The stability of flavonoids was compared at wet storage (solution form at room temperature and at −20° C.) and dry storage (room temperature bound to sorbent and dry form in an open Eppendorf vial).
compound,measurement,setting,value
"c1ccc2c(c1)cc1ccc3cccc4ccc2c1c34 [Benzo(a)pyrene (B(a)P), Benzo(a)pyrene]",Average % Bound,[1],95-99%
same,Average % Recovered,[1],96-100%
"O=c1c(O)c(-c2ccc(O)c(O)c2)oc2cc(O)cc(O)c12 [Quercetin, quercetin]","Bound % (Oasis ® HLB, 30 mg, 1 ml sorbent)",[2],100%
same,percent degradation,"[3]; 0 h, 10 ppm",0%
same,percent degradation,"[3]; 0 h, 15 ppm",0%
same,percent degradation,"[3]; 0 h, 20 ppm",0%
same,percent degradation,"[3]; 0 h, 25 ppm",0%
same,percent degradation,"[3]; 0 h, 30 ppm",0%
same,percent degradation,"[3]; 4 h, 10 ppm",−0.4024%
same,percent degradation,"[3]; 4 h, 15 ppm",0.1356%
same,percent degradation,"[3]; 4 h, 20 ppm",−0.4094%
same,percent degradation,"[3]; 4 h, 25 ppm",0.4552%
same,percent degradation,"[3]; 4 h, 30 ppm",−0.3121%
same,percent degradation,"[3]; 1 day, 10 ppm",0.4024%
same,percent degradation,"[3]; 1 day, 15 ppm",−0.4070%
same,percent degradation,"[3]; 1 day, 20 ppm",0.1023%
same,percent degradation,"[3]; 1 day, 25 ppm",1.442%
same,percent degradation,"[3]; 1 day, 30 ppm",−0.2496%
same,percent degradation,"[3]; 3 days, 10 ppm",3.822%
same,percent degradation,"[3]; 3 days, 15 ppm",2.442%
same,percent degradation,"[3]; 3 days, 20 ppm",1.842%
same,percent degradation,"[3]; 3 days, 25 ppm",2.656%
same,percent degradation,"[3]; 3 days, 30 ppm",0.9363%
same,percent degradation,"[3]; 7 days, 10 ppm",6.237%
same,percent degradation,"[3]; 7 days, 15 ppm",3.799%
same,percent degradation,"[3]; 7 days, 20 ppm",4.811%
same,percent degradation,"[3]; 7 days, 25 ppm",4.780%
same,percent degradation,"[3]; 7 days, 30 ppm",3.246%
same,percent degradation,"[3]; 10 days, 10 ppm",5.432%
same,percent degradation,"[3]; 10 days, 15 ppm",3.664%
same,percent degradation,"[3]; 10 days, 20 ppm",3.480%
same,percent degradation,"[3]; 10 days, 25 ppm",3.414%
same,percent degradation,"[3]; 10 days, 30 ppm",2.871%
same,percent degradation,"[3]; 28 days, 10 ppm",12.47%
same,percent degradation,"[3]; 28 days, 15 ppm",9.633%
same,percent degradation,"[3]; 28 days, 20 ppm",7.881%
same,percent degradation,"[3]; 28 days, 25 ppm",6.525%
same,percent degradation,"[3]; 28 days, 30 ppm",5.056%
"c1ccc2c(c1)-c1cccc3c1c-2cc1ccccc13 [Benzo(b)fluoranthene (B(b)F), Benzo(b)fluoranthene]",Average % Bound,[1],95-99%
same,Average % Recovered,[1],90-97%
"O=c1c(O)c(-c2ccc(O)cc2)oc2cc(O)cc(O)c12 [Kaempferol, kaempferol]","Bound % (Oasis ® HLB, 30 mg, 1 ml sorbent)",[2],100%
"O=c1c(O)c(-c2cc(O)c(O)c(O)c2)oc2cc(O)cc(O)c12 [Myricetin, myricetin]","Bound % (Oasis ® HLB, 30 mg, 1 ml sorbent)",[2],100%
same,percent degradation,"[3]; 0 h, 10 ppm",0%
same,percent degradation,"[3]; 0 h, 15 ppm",0%
same,percent degradation,"[3]; 0 h, 20 ppm",0%
same,percent degradation,"[3]; 0 h, 25 ppm",0%
same,percent degradation,"[3]; 0 h, 30 ppm",0%
same,percent degradation,"[3]; 4 h, 10 ppm",−0.4796%
same,percent degradation,"[3]; 4 h, 15 ppm",−0.6270%
same,percent degradation,"[3]; 4 h, 20 ppm",1.520%
same,percent degradation,"[3]; 4 h, 25 ppm",0.1736%
same,percent degradation,"[3]; 4 h, 30 ppm",0.4265%
same,percent degradation,"[3]; 1 day, 10 ppm",−0.9592%
same,percent degradation,"[3]; 1 day, 15 ppm",0.3134%
same,percent degradation,"[3]; 1 day, 20 ppm",2.690%
same,percent degradation,"[3]; 1 day, 25 ppm",3.211%
same,percent degradation,"[3]; 1 day, 30 ppm",0.9239%
same,percent degradation,"[3]; 3 days, 10 ppm",4.556%
same,percent degradation,"[3]; 3 days, 15 ppm",5.015%
same,percent degradation,"[3]; 3 days, 20 ppm",6.901%
same,percent degradation,"[3]; 3 days, 25 ppm",5.990%
same,percent degradation,"[3]; 3 days, 30 ppm",3.767%
same,percent degradation,"[3]; 7 days, 10 ppm",11.27%
same,percent degradation,"[3]; 7 days, 15 ppm",9.404%
same,percent degradation,"[3]; 7 days, 20 ppm",12.74%
same,percent degradation,"[3]; 7 days, 25 ppm",10.67%
same,percent degradation,"[3]; 7 days, 30 ppm",8.319%
same,percent degradation,"[3]; 10 days, 10 ppm",12.47%
same,percent degradation,"[3]; 10 days, 15 ppm",10.66%
same,percent degradation,"[3]; 10 days, 20 ppm",12.63%
same,percent degradation,"[3]; 10 days, 25 ppm",9.982%
same,percent degradation,"[3]; 10 days, 30 ppm",7.747%
same,percent degradation,"[3]; 28 days, 10 ppm",30.46%
same,percent degradation,"[3]; 28 days, 15 ppm",31.97%
same,percent degradation,"[3]; 28 days, 20 ppm",22.92%
same,percent degradation,"[3]; 28 days, 25 ppm",19.36%
same,percent degradation,"[3]; 28 days, 30 ppm",17.13%
"c1ccc2c(c1)ccc1c3ccccc3ccc21 [Chrysene (Ch), Chrysene]",Average % Bound,[1],95-99%
same,Average % Recovered,[1],100-102%
"c1ccc2cc3c(ccc4ccccc43)cc2c1 [Benz(a)anthracene (B(a)A), Benz(a)anthracene]",Average % Bound,[1],95-99%
same,Average % Recovered,[1],100-102%
